Assays:
[1] = system: 20-HETE formation (CYP4) in RKM; assay: Inhibition of 20-HETE formation at 250 or 500 nM in RKM microsomal incubations; type: biochemical, rat; conditions: RKM 300 μg/ml; for RKM % inh. @ 250 nM: 250 nM compound; for RKM % inh. @ 500 nM: 500 nM compound
How it was run: (§1)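 Microsomes (300 μg/ml) or rCYP4F2 (25 pmol/mL) were incubated with 100 μM arachidonic acid, 1 mM NADPH and test compound in 0.12 M potassium phosphate with 5 mM MgCl2 for 20 min at 37° C. 20-HETE was quantified by UPLC-MS/MS with 20-HETE-d6 internal standard and expressed as percent of vehicle (n=3).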

[2] = target: formation of EETs and DiHETs (epoxygenase activity) in HLM; assay: Selectivity: inhibition of EETs and DiHETs formation (epoxygenase activity) in HLM; type: biochemical, human; conditions: for IC50: sum of EETs and DiHETs
Procedure: Selectivity of compounds for inhibition of 20-HETE formation vs inhibition of formation of 8,9-, 11,12-, 14,15-EET and 5,6-, 8,9-, 11,12-, 14,15-DiHETs was assessed via the simultaneous monitor of formation of 20-HETE and those metabolites under the UPLC-MS/MS assay conditions described above using HLM incubations and the same 12 test compound concentrations (0.1 nM-[…]) used for the IC50 determination experiments. At each of the 12 concentrations, the selectivity of 20-HETE inhibition over the other metabolites was compared. Epoxygenase activity was assessed by the sum of EETs and DiHETEs as percentage of control.

[3] = system: 20-HETE formation (CYP4) in HLM; assay: Inhibition of 20-HETE formation at 250 or 500 nM in HLM microsomal incubations; type: biochemical, human; conditions: HLM 300 μg/ml, AA 100 μM, 20 min; for HLM % inh. @ 250 nM: 250 nM compound; for HLM % inh. @ 500 nM: 500 nM compound
How it was run: as §1

[4] = system: 20-HETE formation (CYP4) in RLM; assay: IC50 determination, 20-HETE formation in RLM; type: biochemical, rat; conditions: RLM 300 μg/ml, AA 100 μM, 12 concentrations
Procedure: Microsomal incubations contained HLM, RLM (300 μg/ml), AA (100 μM), NADPH (1 mM) and test compounds at 12 concentrations (0.1 nM-50 μM) in a 1 ml total volume in microsomal incubation buffer (0.12 M potassium phosphate buffer containing 5 mM magnesium chloride). Reaction was started by adding NADPH to the incubates and was carried out at 37° C. in a shaking water bath for 20 min. Reaction was stopped by placing tubes on ice, followed by adding 12.5 μl 20-HETE-d6 as internal standard to each sample. Microsomal incubations were extracted with 3 ml ethyl ether twice, dried down under nitrogen gas and reconstituted in 125 μl 80:20 methanol:deionized H2O for analysis. 20-HETE formation was quantified using the validated UPLC-MS/MS assay described above and normalized by vehicle group. HET0016 (250 nM) was used as positive control. Incubates without NADPH group served as the negative control. IC50 was determined by fitting the dose-response curve using Graphpad Prism nonlinear regression.

Row | SMILES | RKM % inh. @ 250 nM [1] | IC50 [2] | HLM % inh. @ 250 nM [3] | HLM % inh. @ 500 nM [3] | RKM % inh. @ 500 nM [1] | EETs Inhibition, % @ 50,000 ([2]; at 50,000 (nM per column head)) | IC50 [4] | EETs Inhibition, % @ 10 μM ([2]; at 10 μM)
1 | c1ccc(C2CCN(c3cn[nH]c3)CC2)cc1 [Compound 1, 4-Phenyl-1-(1H-pyrazol-4-yl)piperidine] | 18.00% | > 10 µM | 64.29% | 78.80% | – | – | – | –
2 | c1ccc(CC2CCN(c3cn[nH]c3)CC2)cc1 [Compound 3, 4-Benzyl-1-(1H-pyrazol-4-yl)piperidine] | – | > 25 µM | – | 77.30% | 0.00% | – | – | –
3 | COc1ccc(C2CCN(c3ccn[nH]3)CC2)cc1 [Compound 19, 4-(4-Methoxyphenyl)-1-(1H-pyrazol-5-yl)piperidine] | – | > 25 µM | – | 72.30% | 0.00% | – | – | –
4 | COc1ccc(C2CCN(c3cn[nH]c3)CC2)cc1 [Compound 20, 4-(4-Methoxyphenyl)-1-(1H-pyrazol-4-yl)piperidine] | – | – | – | 73.10% | 4.90% | 3.1%@ 50,000 | – | –
5 | CC(=O)N(C)c1ccc(C2CCN(c3cn[nH]c3)CC2)cc1 [Compound 28, N-(4-(1-(1H-Pyrazol-4-yl)piperidin-4-yl)phenyl)-N-methylacetamide] | – | – | – | 75.00% | 43.00% | – | – | –
6 | Cc1cccc(C2CCN(c3cn[nH]c3)CC2)c1 [Compound 34, 1-(1H-Pyrazol-4-yl)-4-(m-tolyl)piperidine] | – | – | – | 80.00% | 36.00% | – | – | –
7 | c1ccc(C2CCN(c3ccn[nH]3)CC2)cc1 [Compound 54, 4-Phenyl-1-(1H-pyrazol-5-yl)piperidine] | 0.00% | > 50 µM | 31.60% | 47.40% | – | – | – | –
8 | O=C1CCCN1Cc1ccc(C2CCN(c3cn[nH]c3)CC2)cc1 [Compound 83, 1-(4-(1-(1H-Pyrazol-4-yl)piperidin-4-yl)benzyl)pyrrolidin-2-one] | – | > 0.05 µM | – | 91.6% | – | – | 0.72 µM | –
9 | Clc1ccc(CC2CCN(c3cn[nH]c3)CC2)cc1 [Compound 93, 4-(4-Chlorobenzyl)-1-(1H-pyrazol-4-yl)piperidine] | – | – | – | 93.03% | – | – | 0.12 µM | 50% @ 10 μM
10 | O=C1CCCN1c1ccc(C2CCN(c3cn[nH]c3)CC2)cc1 [Compound 100, 1-(4-(1-(1H-Pyrazol-4-yl)piperidin-4-yl)phenyl)pyrrolidin-2-one] | – | > 0.05 µM | – | 76.1% | – | – | 0.57 µM | –

Reference: patent publication US12479816B2, “20-HETE formation inhibitors” (UNIVERSITY OF PITTSBURGH—OF THE COMMONWEALTH SYSTEM OF …, priority 2019, dated 2025)
